In brackets after ≈: the same amount, converted by molar mass. Read-outs that look alike come from different tables or passages of the source.
Key:
[1] = Kinetic solubility assay in HBSS buffer; assay type: physicochemical; conditions: aqueous buffer, kinetic from dmso stock; Hanks-HEPES (HBSS buffer), pH 7.4; read-out: KS (kinetic solubility)
Protocol: The kinetic solubility assay was performed to determine the solubility of the compounds in the in vitro assay conditions. The assay investigated the solubility based on the precipitation process in the HBSS buffer. For the preparation of the assay buffer, the following compounds were dissolved in 800 mL purified water: • − 130 mM sodium chloride, NaCl (7.600 g); • − 5.4 mM potassium chloride, KCl (0.403 g); • − 0.8 mM magnesium sulfate, MgSO4 × 7H2O (0.197 g); • − 0.9 mM sodium phosphate monobasic, NaH2PO4 × 2H2O (0.140 g); • − 25 mM D-glucose (4.500 g); • − 20 mM HEPES sodium salt (5.210 g).
The buffer was adjusted to pH 7.4, and the following compound was added to the mixture: • − 1.8 mM calcium chloride, CaCl2 × 2H2O (0.265 g).
The total volume was adjusted to 1000 mL.
The investigated compounds were diluted (in triplicate) with the HBSS buffer at pH 7.4 to a final concentration of 500 μM.
The mixture was shaken on a filter plate at 500 rpm for 1.5 h at RT. After incubation, the filter plate was placed inside a vacuum manifold and filtrated. Samples were collected and the concentration of the filtrate was determined spectrophotometrically by measuring the UV–VIS absorption spectrum. Concentrations were calculated based on equations resulting from the calibration curves (in duplicates, 8 calibration points, dilution Factor ×2, 500 µM → 3.91 µM, including blank sample).

[2] = target: T1, recombinant human mGlu7 receptor (FAST-0154C) (Homo sapiens, UniProt Q14831); assay: NAM mGlu7 activity on CHO-K1 cell line, cAMP HTRF (EuroscreenFast protocol); assay type: cell-based; conditions: CHO-K1 human mGlu7, agonist L-AP4 at EC80
T1 construct: host or cells: CHO-K1
T1 sequence (Q14831 35-915): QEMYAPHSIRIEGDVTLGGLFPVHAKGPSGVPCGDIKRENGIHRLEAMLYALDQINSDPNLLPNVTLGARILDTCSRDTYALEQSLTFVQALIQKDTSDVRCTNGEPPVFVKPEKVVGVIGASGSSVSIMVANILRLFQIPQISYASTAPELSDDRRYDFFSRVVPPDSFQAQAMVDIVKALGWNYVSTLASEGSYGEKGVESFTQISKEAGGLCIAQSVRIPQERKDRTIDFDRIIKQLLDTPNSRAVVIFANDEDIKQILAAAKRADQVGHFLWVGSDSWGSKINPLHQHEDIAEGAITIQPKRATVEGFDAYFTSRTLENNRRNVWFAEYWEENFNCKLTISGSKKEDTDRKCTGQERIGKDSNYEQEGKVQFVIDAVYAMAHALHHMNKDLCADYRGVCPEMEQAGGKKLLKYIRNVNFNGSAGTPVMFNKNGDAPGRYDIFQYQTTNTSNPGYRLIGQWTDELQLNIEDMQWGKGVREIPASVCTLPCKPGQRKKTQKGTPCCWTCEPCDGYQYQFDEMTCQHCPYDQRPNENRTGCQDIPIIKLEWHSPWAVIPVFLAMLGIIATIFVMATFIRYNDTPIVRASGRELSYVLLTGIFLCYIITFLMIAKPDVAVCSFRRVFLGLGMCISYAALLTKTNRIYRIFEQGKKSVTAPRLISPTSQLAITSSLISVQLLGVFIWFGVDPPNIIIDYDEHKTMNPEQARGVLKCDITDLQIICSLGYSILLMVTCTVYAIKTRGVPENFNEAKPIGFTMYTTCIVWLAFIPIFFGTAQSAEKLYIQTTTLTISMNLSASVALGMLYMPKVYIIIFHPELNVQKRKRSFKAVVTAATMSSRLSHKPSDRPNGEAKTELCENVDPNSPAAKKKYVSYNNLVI
Source text: with inducible expression of human mGlu7 receptor. […]
2.2. NAM mGlu7 receptor activity on CHO-K1 cell line according to EuroscreenFast protocol
ALX-065 and ALX-171 were testing for negative allosteric modulator (NAM) activity on alternative […]
mGlu7 cell line (recombinant human mGlu7 receptor (FAST-0154C) using cAMP HTRF functional assay) […]
by EuroscreenFast company according to the provided methodology.
Receptor Accession Cell line Reference Reference
Number agonist antagonist
Compounds were tested for NAM activity at the human mGlu7 receptor (FAST-0154C) in dose […]
response and in duplicates (range concentration: 1 nM – 25 µM) […]
cAMP HTRF assay for Gi coupled receptor
CHO-K1 cells expressing recombinant human mGlu7 receptor (FAST-0154C) grown prior to the test […]
inmedia without antibiotic are detached by gentle flushing with PBS-EDTA (5 mM EDTA), recovered […]
by centrifugation and resuspended in assay buffer (KRH: 5 mM KCl, 1.25 mM MgSO4, 124 mM NaCl, […]
25 mM HEPES, 13.3 mM Glucose, 1.25 mM KH2PO4, 1.45 mM CaCl2, 0.5 g/L BSA, supplemented with 1 […]
Dose response curves are performed in parallel with the reference compounds.
For antagonist/NAM test (96 well): 12 µl of cells are mixed with 6 µl of the test compound at increasing concentrations and then incubated 10 min. Thereafter 6 µl of the mix of the forskolin and reference agonist is added at a final concentration corresponding to the historical EC80. The plates are then incubated for 30 min at room temperature. After addition of the lysis buffer and 1 hour incubation, cAMP concentrations are estimated, according to the manufacturer specification, with the HTRF kit. […]

[3] = Metabolic stability in mouse microsomal fraction; assay type: in vitro ADME; conditions: 1 µM, mouse microsomes 0.3 mg/mL, NADPH-regenerating system
Protocol: A metabolic stability assay was performed using a mouse microsomal fraction (phase I of metabolism) obtained from XenoTech (Kansas City, MO, USA). Compounds for metabolic stability testing were prepared as 10 mM stock solutions in DMSO. Compounds were incubated in triplicate at a 1 µM initial concentration with the microsomal fraction in the presence of NRS (NADPH-regenerating system, 1.3 mM). The final microsomal incubation (0.3 mg/mL) contained the components mentioned below in a pH 7.4 phosphate buffer. Control incubations were conducted without cofactors. The reference compound verapamil was used as a positive control. Incubations were carried out for 1 h on 96-well plates using a heated (+37 °C) orbital shaker (350 rpm). After incubation, the reaction was quenched through the addition of cold acetonitrile. The plate containing the samples was centrifuged at 2000 rpm for 15 min at 4 °C. The supernatants were analyzed using LC–MS.
The HPLC–MS consisted of a Dionex, Ultimate 3000 HPLC, and a Bruker Daltonics amaZon SL mass spectrometer (ESI-IT). The conditions were as follows: Column HPLC Ascentis Express C18 (5 cm × 2.1 mm, 2.7 µm) and an injection volume of 20 µL. An acetonitrile gradient was used with 0.1% formic acid in water at a constant flow rate of 1 mL/min. The programming was as follows: 0–0.5 min 5% ACN, 0.5–3.0 increase of 5–95%, 3.0–3.3 remaining at 95% ACN, 3.3–3.4 min decrease of 95–5% ACN, and 3.4–4.0 min 5% ACN. Samples were analyzed in a single-ion monitoring scan mode in positive mode. The conditions of the main parameters were as follows: a trap drive of 48.2, capillary exit voltage of 140.0 V, dry temperature (set) of 300 °C, nebulizer pressure (set) of 40.00 psi, dry gas flow (set) of 9.00 L/min HV capillary voltage of −4500 V, HV end-plate offset voltage of −500 V.
The percent loss of compounds was calculated through the normalization of the peak area against time 0, where the peak area at T0 was 100%. The elimination rate constant (h) was determined from the plot of ln (percent loss of compound) as a time function and equal to the minor value of the linear curve slope.

[4] = Pharmacokinetics and brain uptake in mice after i.p. administration; assay type: in vivo, mouse (Albino Swiss); conditions: mouse Albino Swiss, 10 mg/kg i.p.; for AUC(0-t): ip
Protocol: Compounds were administered to mice at a dose of 10 mg/kg i.p. Plasma and tissue samples were collected at 0.25, 0.50, 1.0, 2.0, 4.0, 6.0, and 24 h. Plasma and tissue samples from all drug-treated animals were thawed at room temperature prior to use. The standard protocol for sample preparation was used: 200 μL of acetonitrile was added to the Eppendorf tubes with 50 μL of studied plasma samples or tissue homogenate. Samples were mixed for 5 min on a mixer at 25 °C and 1400 rpm. The tubes were then centrifuged at 2000× g for 15 min at 4 °C. A total of 180 μL of each supernatant was transferred to a plate well. Finally, each sample was injected into the LC–MS column. Calibration curve serial dilution method: Plasma was spiked with a standard at different concentrations. Acetonitrile was added. After mixing and centrifugation, the supernatant was collected.
Chromatographic conditions. Plasma and tissue samples from all drug-treated animals at selected time points were analyzed using a previously developed nonvalidated LC–MS/MS method. […] The LC–MS analysis was carried out on a Bruker amaZon SL mass spectrometer using the positive/negative ion ESI mode. Chromatographic separation was achieved on an Ascentis Express C18 column (5 cm × 2.1 mm, 2.7 μM, Supelco Technologies) at room temperature with a thermostatted column oven. A gradient elution of eluents A (acetonitrile (LiChrosolv, Reag. Ph Eur) + 0.1% formic acid (Sigma Aldrich, 98–100%)) and B (water + 0.1% formic acid) were used for separation. The flow rate was set at 1 mL/min. The injection volume was 20 μL, and the time of injection was 4 min.
Mass spectrometric conditions. An ion trap mass spectrometer (Bruker amaZon SL, Bruker, Bremen, Germany) was equipped with an electrospray source operating in the positive/negative ion mode. Data were collected and processed using Bruker Quant Analysis (Bruker, Bremen, Germany) software. A quantification of the analytes was performed in the SIM mode.

[5] = system: animal models of schizophrenia; conditions: cited from earlier work

With COc1ccc(-c2cc3onc(-c4ccncc4)c3c(=O)n2C)cc1 [MMPIP, reference compound] the solubility kinetic at 1.5 h [1] was 5.6 µM (≈ 1.87 µg/mL), the “% inhibition at maximal concentration” value ([2]; range 1 nM – 25 µM) was 100% and the IC50 ([2]; read-out: IC50 (CHO-K1, Figure S4)) was 270 nM. For the same molecule, the “MML (metabolic stability liver microsome mouse)” value [3] was 49.78 % remaining after 60 min, the AUC(0-t) ([4]; brain, read-out: AUC0-t, brain) was 8.98 µM·h and the AUC(0-t) ([4]; plasma, read-out: AUC0-t, plasma) was 13.5 µM·h. For the same molecule, the “Cmax, brain” value ([4]; brain) was 5.42 µM/L, the “Tmax, plasma” value ([4]; plasma) was 15 min and the “MK-801-induced disruptions in social interaction” value [5] was “not observed”. The “prepulse inhibition (PPI)” value [5] was “not observed” and the “activity in animal models of schizophrenia” value ([5]; mGlu7 NAMs) was “antipsychotic activity”.
